Source: publication PMC5513037, “Examining the influence of specificity ligands and ATP-competitive ligands on the overall effectiveness of bivalent kinase inhibitors” (Proteome Science, 2017)

Columns and labels:
Experiment in all cases: Dasatinib-matrix competition in K562 lysate
Settings in all cases: residual binding 50 value; read-out: RB50 (the source's name)
TTN = molecular target: T1, TTN (Homo sapiens, UniProt Q8WZ42)
T1 construct: endogenous in cells; host or cells: K562

TKT = molecular target: T2, TKT (Homo sapiens, UniProt P29401)
T2 construct: endogenous in cells; host or cells: K562
T2 sequence (P29401 whole entry): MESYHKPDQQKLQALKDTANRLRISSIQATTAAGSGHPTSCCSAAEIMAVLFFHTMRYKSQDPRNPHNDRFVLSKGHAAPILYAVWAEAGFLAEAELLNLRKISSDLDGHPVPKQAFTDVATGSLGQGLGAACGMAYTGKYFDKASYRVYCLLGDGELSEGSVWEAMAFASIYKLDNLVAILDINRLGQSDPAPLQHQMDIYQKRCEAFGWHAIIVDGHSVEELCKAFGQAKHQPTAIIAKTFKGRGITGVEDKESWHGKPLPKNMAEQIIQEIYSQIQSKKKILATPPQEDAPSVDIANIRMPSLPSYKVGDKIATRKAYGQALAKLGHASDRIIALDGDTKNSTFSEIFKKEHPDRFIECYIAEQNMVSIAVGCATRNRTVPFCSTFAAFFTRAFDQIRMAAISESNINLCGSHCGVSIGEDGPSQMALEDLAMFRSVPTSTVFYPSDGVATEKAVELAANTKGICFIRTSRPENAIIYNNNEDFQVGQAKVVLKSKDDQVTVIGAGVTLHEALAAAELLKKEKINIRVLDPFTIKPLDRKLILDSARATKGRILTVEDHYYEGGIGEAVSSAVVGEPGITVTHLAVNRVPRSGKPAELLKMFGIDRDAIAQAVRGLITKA

OBSCN = molecular target: T3, OBSCN (Homo sapiens, UniProt Q5VST9)
T3 construct: endogenous in cells; host or cells: K562

ATR = molecular target: T4, ATR (Homo sapiens, UniProt Q13535)
T4 construct: endogenous in cells; host or cells: K562

SMG1 = molecular target: T5, SMG1 (Homo sapiens, UniProt Q96Q15)
T5 construct: endogenous in cells; host or cells: K562
T5 sequence (Q96Q15 whole entry): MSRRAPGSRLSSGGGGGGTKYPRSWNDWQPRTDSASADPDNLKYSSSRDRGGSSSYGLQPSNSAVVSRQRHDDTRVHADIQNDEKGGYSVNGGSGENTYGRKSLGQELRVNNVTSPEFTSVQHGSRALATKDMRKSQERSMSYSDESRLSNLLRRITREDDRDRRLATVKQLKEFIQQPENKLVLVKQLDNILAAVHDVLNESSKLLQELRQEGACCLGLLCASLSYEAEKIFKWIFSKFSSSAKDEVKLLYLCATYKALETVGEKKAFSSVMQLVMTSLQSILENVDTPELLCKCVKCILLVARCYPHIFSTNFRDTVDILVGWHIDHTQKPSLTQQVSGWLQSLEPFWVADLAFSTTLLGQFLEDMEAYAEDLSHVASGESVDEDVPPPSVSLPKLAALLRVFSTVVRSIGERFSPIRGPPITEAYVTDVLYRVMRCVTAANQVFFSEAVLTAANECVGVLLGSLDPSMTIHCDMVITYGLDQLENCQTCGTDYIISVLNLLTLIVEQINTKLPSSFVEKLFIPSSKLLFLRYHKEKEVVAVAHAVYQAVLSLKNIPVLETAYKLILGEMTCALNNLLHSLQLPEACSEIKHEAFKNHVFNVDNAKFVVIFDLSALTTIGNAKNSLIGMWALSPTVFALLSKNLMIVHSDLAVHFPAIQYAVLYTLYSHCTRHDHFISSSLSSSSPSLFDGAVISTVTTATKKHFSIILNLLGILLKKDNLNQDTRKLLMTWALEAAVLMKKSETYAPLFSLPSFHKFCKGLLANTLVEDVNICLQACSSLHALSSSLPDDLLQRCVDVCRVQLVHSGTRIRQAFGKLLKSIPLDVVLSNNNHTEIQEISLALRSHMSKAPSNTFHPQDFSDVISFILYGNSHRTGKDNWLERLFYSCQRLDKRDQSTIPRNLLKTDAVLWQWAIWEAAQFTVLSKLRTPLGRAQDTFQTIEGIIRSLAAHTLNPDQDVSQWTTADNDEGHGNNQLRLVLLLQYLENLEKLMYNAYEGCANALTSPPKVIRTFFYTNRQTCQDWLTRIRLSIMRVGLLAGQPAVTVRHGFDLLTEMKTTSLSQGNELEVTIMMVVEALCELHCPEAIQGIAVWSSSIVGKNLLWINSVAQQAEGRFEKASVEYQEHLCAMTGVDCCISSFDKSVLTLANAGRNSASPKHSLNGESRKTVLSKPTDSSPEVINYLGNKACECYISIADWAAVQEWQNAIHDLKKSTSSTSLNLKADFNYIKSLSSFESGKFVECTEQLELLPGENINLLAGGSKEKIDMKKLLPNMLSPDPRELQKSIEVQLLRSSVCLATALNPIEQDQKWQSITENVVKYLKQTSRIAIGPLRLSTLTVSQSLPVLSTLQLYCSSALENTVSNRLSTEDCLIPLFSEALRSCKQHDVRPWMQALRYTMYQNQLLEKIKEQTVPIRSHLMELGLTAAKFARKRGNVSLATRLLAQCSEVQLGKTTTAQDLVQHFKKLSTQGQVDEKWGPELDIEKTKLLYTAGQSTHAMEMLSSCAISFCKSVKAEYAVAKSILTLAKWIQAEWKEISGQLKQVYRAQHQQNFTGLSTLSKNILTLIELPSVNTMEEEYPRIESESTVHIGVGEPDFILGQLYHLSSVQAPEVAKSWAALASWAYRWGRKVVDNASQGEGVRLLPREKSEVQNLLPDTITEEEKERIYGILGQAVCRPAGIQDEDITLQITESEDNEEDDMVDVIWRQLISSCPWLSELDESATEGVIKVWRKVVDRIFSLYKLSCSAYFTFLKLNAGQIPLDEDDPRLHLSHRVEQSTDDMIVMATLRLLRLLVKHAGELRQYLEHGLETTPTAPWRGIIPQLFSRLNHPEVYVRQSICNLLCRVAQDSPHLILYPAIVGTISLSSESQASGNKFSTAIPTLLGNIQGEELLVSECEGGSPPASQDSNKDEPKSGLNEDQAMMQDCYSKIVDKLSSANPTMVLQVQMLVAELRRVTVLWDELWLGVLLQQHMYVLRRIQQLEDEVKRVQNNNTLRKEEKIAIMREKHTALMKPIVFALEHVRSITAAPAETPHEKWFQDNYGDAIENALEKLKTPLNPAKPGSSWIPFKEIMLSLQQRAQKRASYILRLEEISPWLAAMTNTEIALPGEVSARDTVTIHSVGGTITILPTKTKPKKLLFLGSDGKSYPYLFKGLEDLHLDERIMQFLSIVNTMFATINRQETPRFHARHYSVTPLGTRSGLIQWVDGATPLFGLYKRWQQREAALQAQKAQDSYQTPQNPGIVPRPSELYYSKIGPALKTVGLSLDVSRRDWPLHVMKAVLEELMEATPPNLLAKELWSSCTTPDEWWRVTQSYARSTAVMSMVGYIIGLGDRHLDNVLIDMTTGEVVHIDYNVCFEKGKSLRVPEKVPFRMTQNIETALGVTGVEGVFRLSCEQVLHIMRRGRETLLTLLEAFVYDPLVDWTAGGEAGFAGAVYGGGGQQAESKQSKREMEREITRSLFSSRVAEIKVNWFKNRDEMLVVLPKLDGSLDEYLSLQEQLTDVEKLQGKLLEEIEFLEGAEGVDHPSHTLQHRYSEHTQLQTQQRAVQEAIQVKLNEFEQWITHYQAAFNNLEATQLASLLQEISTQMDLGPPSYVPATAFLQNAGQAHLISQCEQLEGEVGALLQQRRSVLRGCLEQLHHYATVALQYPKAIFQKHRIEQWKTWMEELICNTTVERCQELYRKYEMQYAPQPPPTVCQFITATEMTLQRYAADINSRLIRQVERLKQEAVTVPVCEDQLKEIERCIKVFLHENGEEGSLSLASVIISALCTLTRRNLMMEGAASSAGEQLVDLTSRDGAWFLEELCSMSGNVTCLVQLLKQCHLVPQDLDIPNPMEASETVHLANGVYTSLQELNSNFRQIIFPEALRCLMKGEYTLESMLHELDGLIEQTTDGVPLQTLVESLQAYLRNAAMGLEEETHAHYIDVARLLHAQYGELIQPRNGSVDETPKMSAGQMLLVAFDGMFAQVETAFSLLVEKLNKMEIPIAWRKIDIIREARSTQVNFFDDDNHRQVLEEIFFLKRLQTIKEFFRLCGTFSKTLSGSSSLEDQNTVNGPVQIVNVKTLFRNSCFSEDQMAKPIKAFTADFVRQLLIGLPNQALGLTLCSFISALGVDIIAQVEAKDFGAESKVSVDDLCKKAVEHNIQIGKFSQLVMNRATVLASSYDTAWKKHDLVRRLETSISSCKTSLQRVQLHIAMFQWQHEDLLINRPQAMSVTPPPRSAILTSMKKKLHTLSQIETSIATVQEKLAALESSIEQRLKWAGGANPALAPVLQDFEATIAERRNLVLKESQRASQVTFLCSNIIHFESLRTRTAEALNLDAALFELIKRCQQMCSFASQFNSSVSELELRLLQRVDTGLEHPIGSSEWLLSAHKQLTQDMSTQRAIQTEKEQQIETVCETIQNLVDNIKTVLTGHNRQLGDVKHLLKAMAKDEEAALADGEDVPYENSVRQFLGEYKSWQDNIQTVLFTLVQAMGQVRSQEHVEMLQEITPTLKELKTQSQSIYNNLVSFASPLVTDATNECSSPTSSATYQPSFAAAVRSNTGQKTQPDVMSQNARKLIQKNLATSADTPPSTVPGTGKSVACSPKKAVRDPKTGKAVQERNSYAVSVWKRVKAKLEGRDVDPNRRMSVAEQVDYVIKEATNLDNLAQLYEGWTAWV

N-TAF1 = molecular target: T6, N-TAF1 (Homo sapiens, UniProt P21675)
T6 construct: endogenous in cells; host or cells: K562

ATM = ATM (Homo sapiens, UniProt Q13315); design: endogenous in cells; host or cells: K562
SPEG = molecular target: T7, SPEG (Homo sapiens, UniProt Q15772)
T7 construct: endogenous in cells; host or cells: K562

TEX14 = molecular target: T8, TEX14 (Homo sapiens, UniProt Q8IWB6)
T8 construct: endogenous in cells; host or cells: K562

PIK3R4 = molecular target: T9, PIK3R4 (Homo sapiens, UniProt Q99570)
T9 construct: endogenous in cells; host or cells: K562

Cc1nc(Nc2ncc(C(=O)Nc3c(C)cccc3Cl)s2)cc(N2CCN(CCO)CC2)n1 [Dasatinib]
IC50 (TTN): > 10 µM | IC50 (TKT): > 10 µM | IC50 (OBSCN): > 10 µM | IC50 (ATR): > 10 µM | IC50 (SMG1): > 10 µM | IC50 (N-TAF1): 9.66 µM | IC50 (ATM): > 10 µM | IC50 (SPEG): > 10 µM | IC50 (TEX14): > 10 µM | IC50 (PIK3R4): > 10 µM
